As a reminder, the IC50 is the concentration that gives 50% inhibition. The low end stands for higher potency, the high end for lower potency.

34 compounds from patent publication US10399985B2, “(Hetero)aryl imidazoles/pyrazoles for treatment of neurological disorders” (Hoffmann-La Roche Inc., priority 2014, dated 2019) can be followed below.

In this test the target is human PDE10A (Homo sapiens (Human), UniProt Q9Y233). The test can be described thus: human PDE10A full length Scintillation Proximity Assay (SPA). To be noted: 50 nM cGMP and 50 nM [3H]-cGMP, 20 minutes at room temperature. Format: biochemical. Here is the method:
The following test was carried out in order to determine the activity of the compounds of the present invention. PDE10 activity of the compounds of the present invention was determined using a Scintillation Proximity Assay (SPA)-based method similar to the one previously described (Fawcett, L. et al., ProcNatl Acad Sci USA (2000) 97(7):3702-3707).
The human PDE10A full length assay was performed in 96-well micro titer plates. The reaction mixture of 50 μl contained 20 mM HEPES pH=7.5/10 mM MgCl2/0.05 mg/ml BSA (Sigma cat. # A-7906), 50 nM cGMP (Sigma, cat. # G6129) and 50 nM [3H]-cGMP (GE Healthcare, cat. # TRK392 S. A. 13.2 Ci/mmol), 3.75 ng/well PDE10A enzyme (Enzo Life Science, Lausen, Switzerland cat # SE-534) with or without a specific test compound. A range of concentrations of the potential inhibitor was used to generate data for calculating the concentration of inhibitor resulting in 50% of the effect (e.g. IC50, the concentration of the competitor inhibiting PDE10A activity by 50%). Non-specific activity was tested without the enzyme. The reaction was initiated by the addition of the substrate solution (cGMP and [3H]-cGMP) and allowed to progress for 20 minutes at room temperature. The reaction was terminated by adding 25 μl of YSi-SPA scintillation beads (GE Healthcare, cat. # RPNQ0150) in 18 mM zinc sulphate solution (stop reagent). After 1 h under shaking, the plate was centrifuged one minute at 170 g to allow beads to settle. Afterwards, radioactive counts were measured on a Perkin Elmer TopCount Scintillation plate reader.
In general terms: Scintillation proximity formats need no separation of bound from free tracer.

Sequence of human PDE10A (Q9Y233 other isoform, or with tags, fused parts or gaps): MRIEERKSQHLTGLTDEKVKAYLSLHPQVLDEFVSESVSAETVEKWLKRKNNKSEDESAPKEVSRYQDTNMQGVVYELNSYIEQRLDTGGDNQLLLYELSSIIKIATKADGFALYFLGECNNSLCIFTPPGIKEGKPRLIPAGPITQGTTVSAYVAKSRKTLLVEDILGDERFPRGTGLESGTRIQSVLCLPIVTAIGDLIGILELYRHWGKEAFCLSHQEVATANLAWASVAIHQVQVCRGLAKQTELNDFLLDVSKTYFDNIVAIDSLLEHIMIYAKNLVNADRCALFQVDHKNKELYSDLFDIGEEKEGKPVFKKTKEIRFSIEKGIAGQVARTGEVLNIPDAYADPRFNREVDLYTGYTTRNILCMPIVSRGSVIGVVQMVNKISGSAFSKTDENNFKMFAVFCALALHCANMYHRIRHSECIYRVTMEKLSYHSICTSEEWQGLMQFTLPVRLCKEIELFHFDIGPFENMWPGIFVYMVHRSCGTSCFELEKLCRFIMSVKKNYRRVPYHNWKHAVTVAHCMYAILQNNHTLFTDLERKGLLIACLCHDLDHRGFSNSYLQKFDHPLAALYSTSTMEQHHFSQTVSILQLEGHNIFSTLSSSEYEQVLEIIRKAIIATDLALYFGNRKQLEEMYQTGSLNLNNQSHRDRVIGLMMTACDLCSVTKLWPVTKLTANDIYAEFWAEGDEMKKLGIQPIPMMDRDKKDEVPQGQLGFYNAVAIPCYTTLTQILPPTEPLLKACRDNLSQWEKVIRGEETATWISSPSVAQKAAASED

Compound `Cc1cn2nc(OCc3nc(-c4ccccc4)cn3C)ccc2n1` [Example 38, 2-Methyl-6-((1-methyl-4-phenyl-1H-imidazol-2-yl)methoxy)imidazo[1,2-b]pyridazine] had a half-inhibitory concentration (IC50) of 0.133 µM.

As to `Cc1c(C#N)nc2ccc(/C=C/c3nc(-c4ccccc4)cn3C)nn12` [Example 12, (E)-3-methyl-6-(2-(1-methyl-4-phenyl-1H-imidazol-2-yl)vinyl)imidazo[1,2-b]pyridazine-2-carbonitrile], the IC50 amounted to 0.0138 µM.

As for `Cc1nc2c(C)c(C)c(OCc3nc(-c4ccccc4)cn3C)nn2c1C` [Example 34, 2,3,7,8-Tetramethyl-6-((1-methyl-4-phenyl-1H-imidazol-2-yl)methoxy)imidazo[1,2-b]pyridazine], inhibition was half-maximal at 0.0017 µM (IC50).

`Cc1c(C(N)=O)nc2ccc(OCc3nc(-c4ccccc4)cn3C)nn12` [Example 39, 3-Methyl-6-((1-methyl-4-phenyl-1H-imidazol-2-yl)methoxy)imidazo[1,2-b]pyridazine-2-carboxamide] had a concentration for half-maximal inhibition (IC50) of 0.115 µM.

`Cc1nc2ccc(C#Cc3nc(-c4ccccc4)cn3C)nn2c1CO` [Example 3, (2-Methyl-6-((1-methyl-4-phenyl-1H-imidazol-2-yl)ethynyl)imidazo[1,2-b]pyridazin-3-yl)methanol] displayed a concentration for half-maximal inhibition (IC50) of 0.001 µM.

Consider `Cc1nc2ccc(OCc3nc(-c4ccccc4)cn3C)nn2c1C` [Example 32, 2,3-Dimethyl-6-((1-methyl-4-phenyl-1H-imidazol-2-yl)methoxy)imidazo[1,2-b]pyridazine], for which the IC50 came to 0.0072 µM.

For the compound `Cc1nc2ccc(CCc3nc(-c4cnccn4)cn3C)nn2c1C` [Example 29, 2,3-Dimethyl-6-(2-(1-methyl-4-(pyrazin-2-yl)-1H-imidazol-2-yl)ethyl)imidazo[1,2-b]pyridazine], 0.0332 µM corresponded to half-maximal inhibition (IC50).

Consider `Cc1nc2ccc(CCc3nc(-c4ccccn4)cn3C)nn2c1C` [Example 27, 2,3-Dimethyl-6-(2-(1-methyl-4-(pyridin-2-yl)-1H-imidazol-2-yl)ethyl)imidazo[1,2-b]pyridazine], for which the half-maximal inhibitory concentration (IC50) came to 0.0033 µM.

`Cc1nc2c(C)c(C)c(CCc3nc(-c4ccccc4)cn3C)nn2c1C` [Example 14, 2,3,7,8-Tetramethyl-6-(2-(1-methyl-4-phenyl-1H-imidazol-2-yl)ethyl)imidazo[1,2-b]pyridazine] returned an IC50 of 0.0108 µM.

`Cn1cc(-c2ccccc2)nc1CCc1ccc2nc(C3CC3)c(CO)n2n1` [Example 18, (2-Cyclopropyl-6-(2-(1-methyl-4-phenyl-1H-imidazol-2-yl)ethyl)imidazo[1,2-b]pyridazin-3-yl)methanol] came in with an IC50 of 0.656 µM.

Compound `Cc1c(C2CC2)nc2ccc(C#Cc3nc(-c4ccccc4)cn3C)nn12` [Example 10, 2-Cyclopropyl-3-methyl-6-((1-methyl-4-phenyl-1H-imidazol-2-yl)ethynyl)imidazo[1,2-b]pyridazine] had an IC50 of 0.012 µM.

In turn, `CCc1nc2ccc(OCc3nc(-c4ccccc4)cn3C)nn2c1C` [Example 35, 2-Ethyl-3-methyl-6-((1-methyl-4-phenyl-1H-imidazol-2-yl)methoxy)imidazo[1,2-b]pyridazine] yielded an IC50 of 0.264 µM.

Compound `Cn1cc(-c2ccccc2)nc1COc1ccc2nc3c(n2n1)CCC3` [Example 44, 2-[(1-Methyl-4-phenyl-imidazol-2-yl)methoxy]-7,8-dihydro-6H-cyclopenta[1,2]imidazo[3,4-c]pyridazine] had an IC50 of 0.047 µM.

`Cc1c(C(F)(F)F)nc2ccc(CCc3nc(-c4ccccc4)cn3C)nn12` [Example 17, 3-Methyl-6-(2-(1-methyl-4-phenyl-1H-imidazol-2-yl)ethyl)-2-(trifluoromethyl)imidazo[1,2-b]pyridazine] registered an IC50 of 0.0205 µM.

On to `Cc1nc2ccc(CCc3nc(-c4ccncc4)cn3C)nn2c1C` [Example 25, 2,3-Dimethyl-6-(2-(1-methyl-4-(pyridin-4-yl)-1H-imidazol-2-yl)ethyl)imidazo[1,2-b]pyridazine], for which the half-maximal inhibitory concentration (IC50) is 0.0323 µM.

With `Cc1nn2ccc(OCc3nc(-c4ccccc4)cn3C)nc2c1C` [Example 46, 2,3-Dimethyl-5-((1-methyl-4-phenyl-1H-imidazol-2-yl)methoxy)pyrazolo[1,5-a]pyrimidine], the half-inhibitory concentration (IC50) is 0.0034 µM.

In turn, `Cc1c(C#N)nc2ccc(OCc3nc(-c4ccccc4)cn3C)nn12` [Example 40, 3-Methyl-6-((1-methyl-4-phenyl-1H-imidazol-2-yl)methoxy)imidazo[1,2-b]pyridazine-2-carbonitrile] gave an IC50 of 0.0237 µM.

With `Cn1cc(-c2ccccc2)nc1COc1ccc2nc(C(F)(F)F)cn2n1` [Example 45, 6-((1-Methyl-4-phenyl-1H-imidazol-2-yl)methoxy)-2-(trifluoromethyl)imidazo[1,2-b]pyridazine], half-maximal inhibition (IC50) was put at 0.328 µM.

Compound `Cn1cc(-c2ccccc2)nc1COc1ccc2nc(C3CC3)c(CO)n2n1` [Example 43, (2-Cyclopropyl-6-((1-methyl-4-phenyl-1H-imidazol-2-yl)methoxy)imidazo[1,2-b]pyridazin-3-yl)methanol] registered an IC50 of 0.167 µM.

With `Cc1c(CO)nc2ccc(OCc3nc(-c4ccccc4)cn3C)nn12` [Example 42, (3-Methyl-6-((1-methyl-4-phenyl-1H-imidazol-2-yl)methoxy)imidazo[1,2-b]pyridazin-2-yl)methanol], the midpoint of inhibition, the IC50, lay at 0.363 µM.

On to `Cn1cc(-c2ccccc2)nc1COc1ccc2nc(C3CC3)cn2n1` [Example 37, 2-Cyclopropyl-6-((1-methyl-4-phenyl-1H-imidazol-2-yl)methoxy)imidazo[1,2-b]pyridazine], for which the IC50 was 0.169 µM.

In turn, `Cc1c(C#N)nc2ccc(CCc3nc(-c4ccccc4)cn3C)nn12` [Example 22, 3-Methyl-6-[2-(1-methyl-4-phenyl-1H-imidazol-2-yl)-ethyl]-imidazo[1,2-b]pyridazine-2-carbonitrile] yielded an IC50 of 0.0054 µM.

`Cc1c(C(F)F)nc2ccc(C#Cc3nc(-c4ccccc4)cn3C)nn12` [Example 7, 2-(Difluoromethyl)-3-methyl-6-((1-methyl-4-phenyl-1H-imidazol-2-yl)ethynyl)imidazo[1,2-b]pyridazine]: the IC50 amounted to 0.0466 µM.

Consider `Cc1nc2ccc(/C=C/c3nc(-c4ccccc4)nn3C)nn2c1C` [Example 11, (E)-2,3-Dimethyl-6-(2-(1-methyl-3-phenyl-1H-1,2,4-triazol-5-yl)vinyl)imidazo[1,2-b]pyridazine], for which the half-maximal inhibitory concentration (IC50) stood at 0.0013 µM.

Regarding `Cc1nc2ccc(CCc3nc(-c4cccnc4)cn3C)nn2c1C` [Example 24, 2,3-Dimethyl-6-(2-(1-methyl-4-(pyridin-3-yl)-1H-imidazol-2-yl)ethyl)imidazo[1,2-b]pyridazine], the IC50 is 1.69 µM.

The compound `Cc1nc2ccc(OCc3nc(-c4ccccc4)nn3C)nn2c1C` [Example 33, 2,3-Dimethyl-6-((1-methyl-3-phenyl-1H-1,2,4-triazol-5-yl)methoxy)imidazo[1,2-b]pyridazine] had an IC50 of 0.0516 µM.

`CNC(=O)c1cc(CCc2nc(-c3ccccn3)cn2C)nn2c(C)c(C(F)(F)F)nc12` [Example 31, N,3-Dimethyl-6-(2-(1-methyl-4-(pyridin-2-yl)-1H-imidazol-2-yl)ethyl)-2-(trifluoromethyl)imidazo[1,2-b]pyridazine-8-carboxamide] registered an IC50 of 0.008 µM.

For `COc1cc(OCc2nc(-c3ccccc3)cn2C)nn2c(C)c(C(F)(F)F)nc12` [Example 41, 8-Methoxy-3-methyl-6-((1-methyl-4-phenyl-1H-imidazol-2-yl)methoxy)-2-(trifluoromethyl)imidazo[1,2-b]pyridazine], the half-inhibitory concentration (IC50) was 0.0118 µM.

Take `Cc1c(C(F)(F)F)nc2ccc(OCc3nc(-c4ccccc4)cn3C)nn12` [Example 36, 3-Methyl-6-((1-methyl-4-phenyl-1H-imidazol-2-yl)methoxy)-2-(trifluoromethyl)imidazo[1,2-b]pyridazine]: it took 0.0346 µM to reach half-maximal inhibition (IC50).

In turn, `Cc1nc2ccc(CCc3nc(-c4ccccc4)cn3C)nn2c1CO` [Example 15, (2-Methyl-6-(2-(1-methyl-4-phenyl-1H-imidazol-2-yl)ethyl)imidazo[1,2-b]pyridazin-3-yl)methanol] showed an IC50 of 0.0034 µM.

Take `Cc1nc2ccc(CCc3nc(-c4ccccc4)nn3C)nn2c1C` [Example 21, 2,3-Dimethyl-6-(2-(1-methyl-3-phenyl-1H-1,2,4-triazol-5-yl)ethyl)imidazo[1,2-b]pyridazine]: the half-inhibitory concentration (IC50) was 0.0277 µM.

`Cc1nc2ccc(CCc3nc(-c4cncnc4)cn3C)nn2c1C` [Example 26, 2,3-Dimethyl-6-(2-(1-methyl-4-(pyrimidin-5-yl)-1H-imidazol-2-yl)ethyl)imidazo[1,2-b]pyridazine]: the 50% inhibitory concentration (IC50) was determined as 0.0985 µM.

On to `Cc1nn2ccc(C#Cc3nc(-c4ccccc4)cn3C)nc2c1C` [Example 4, 2,3-Dimethyl-5-((1-methyl-4-phenyl-1H-imidazol-2-yl)ethynyl)pyrazolo[1,5-a]pyrimidine], for which 0.0015 µM corresponded to half-maximal inhibition (IC50).

`Cn1cc(-c2ccccc2)nc1C#Cc1ccc2nc(C3CC3)c(CO)n2n1` [Example 6, (2-Cyclopropyl-6-((1-methyl-4-phenyl-1H-imidazol-2-yl)ethynyl)imidazo[1,2-b]pyridazin-3-yl)methanol] displayed an IC50 of 0.0019 µM.
